# Results: PubChem BioAssay AID248 (DTP/NCI, 2004)
# Values joined by “and” are separate entries in the source; they are usually repeats but may differ in a detail not shown here. Identical values can stand only once. Inconclusive results and toxic doses are left out.
# Tested on: L1210 leukemia ip in BDF1 mice, survival T/C
# Experiment: NCI In Vivo Anticancer Drug Screen. Data for tumor model L1210 Leukemia (intraperitoneal) in B6D2F1 (BDF1) mice
# Details: endpoint: mean survival time, higher = longer survival
# Method in brief: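 Transplanted-tumor mice were given test agent; controls received vehicle only. Survival readings from the two groups were divided (treated over control).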
# [1] = dose: 400.0 mg/kg/injection, schedule: Q01DX001 (ip), vehicle: carboxymethylcellulose (CMC)
# [2] = dose: 400.0 mg/kg/injection, schedule: Q01DX009 (ip), vehicle: carboxymethylcellulose (CMC)
# [3] = dose: 100.0 mg/kg/injection, schedule: Q01DX001 (ip), vehicle: carboxymethylcellulose (CMC)
# [4] = dose: 100.0 mg/kg/injection, schedule: Q01DX001 (ip), vehicle: saline
# [5] = dose: 200.0 mg/kg/injection, schedule: Q01DX001 (ip), vehicle: saline
# [6] = dose: 400.0 mg/kg/injection, schedule: Q01DX001 (ip), vehicle: saline
# [7] = dose: 200.0 mg/kg/injection, schedule: Q01DX001 (ip), vehicle: saline with Tween-80
structure (smiles),measurement,setting,value
Cc1ccc(NC(=O)N(CCCl)N=O)cc1NC(=O)c1ccccc1,T/C,"dose: 0.22 mg/kg/injection, schedule: Q01DX009 (ip), vehicle: carboxymethylcellulose (CMC)",103 % of control
same,T/C,"dose: 0.45 mg/kg/injection, schedule: Q01DX009 (ip), vehicle: carboxymethylcellulose (CMC)",103 % of control
same,T/C,"dose: 1.8 mg/kg/injection, schedule: Q01DX009 (ip), vehicle: carboxymethylcellulose (CMC)",180 % of control
same,T/C,"dose: 2.6 mg/kg/injection, schedule: Q01DX009 (ip), vehicle: carboxymethylcellulose (CMC)",175 % of control
same,T/C,"dose: 3.0 mg/kg/injection, schedule: Q01DX009 (ip), vehicle: carboxymethylcellulose (CMC)",164 % of control
same,T/C,"dose: 4.0 mg/kg/injection, schedule: Q01DX009 (ip), vehicle: carboxymethylcellulose (CMC)",151 % of control
same,T/C,"dose: 6.6 mg/kg/injection, schedule: Q01DX009 (ip), vehicle: carboxymethylcellulose (CMC)",179 % of control
same,T/C,"dose: 10.0 mg/kg/injection, schedule: Q01DX009 (ip), vehicle: carboxymethylcellulose (CMC)",194 % of control
same,T/C,"dose: 15.0 mg/kg/injection, schedule: Q01DX009 (ip), vehicle: carboxymethylcellulose (CMC)",183 % of control
same,T/C,"dose: 23.0 mg/kg/injection, schedule: Q01DX009 (ip), vehicle: carboxymethylcellulose (CMC)",243 % of control
same,T/C,"dose: 34.0 mg/kg/injection, schedule: Q01DX009 (ip), vehicle: carboxymethylcellulose (CMC)",186 % of control
same,T/C,"dose: 52.0 mg/kg/injection, schedule: Q01DX009 (ip), vehicle: carboxymethylcellulose (CMC)",178 % of control
same,T/C,"dose: 78.0 mg/kg/injection, schedule: Q01DX001 (ip), vehicle: Klucel (hydroxypropylcellulose) (HPC)",155 % of control
same,T/C,"dose: 78.0 mg/kg/injection, schedule: Q01DX009 (ip), vehicle: carboxymethylcellulose (CMC)",205 % of control
same,T/C,"dose: 118.0 mg/kg/injection, schedule: Q01DX001 (ip), vehicle: Klucel (hydroxypropylcellulose) (HPC)",159 % of control
same,T/C,"dose: 177.0 mg/kg/injection, schedule: Q01DX001 (ip), vehicle: Klucel (hydroxypropylcellulose) (HPC)",213 % of control
same,T/C,"dose: 266.0 mg/kg/injection, schedule: Q01DX001 (ip), vehicle: carboxymethylcellulose (CMC)",154 % of control
same,T/C,"dose: 266.0 mg/kg/injection, schedule: Q01DX009 (ip), vehicle: carboxymethylcellulose (CMC)",105 % of control
same,T/C,[1],150 % of control and 168 % of control
same,T/C,[2],98 % of control
same,T/C,"dose: 600.0 mg/kg/injection, schedule: Q01DX001 (ip), vehicle: carboxymethylcellulose (CMC)",165 % of control
CC(=O)OC1=CC(=O)c2ccccc2C1=O,T/C,"dose: 5.0 mg/kg/injection, schedule: Q01DX001 (ip), vehicle: carboxymethylcellulose (CMC)",101 % of control
same,T/C,"dose: 10.0 mg/kg/injection, schedule: Q01DX001 (ip), vehicle: carboxymethylcellulose (CMC)",101 % of control
same,T/C,"dose: 20.0 mg/kg/injection, schedule: Q01DX001 (ip), vehicle: carboxymethylcellulose (CMC)",101 % of control
same,T/C,"dose: 40.0 mg/kg/injection, schedule: Q01DX001 (ip), vehicle: carboxymethylcellulose (CMC)",107 % of control
same,T/C,"dose: 80.0 mg/kg/injection, schedule: Q01DX001 (ip), vehicle: carboxymethylcellulose (CMC)",107 % of control
same,T/C,[3],104 % of control
COc1cc(OC)c2c(=O)c(O)c(-c3ccc(OC)c(OC)c3)oc2c1,T/C,"dose: 50.0 mg/kg/injection, schedule: Q01DX001 (ip), vehicle: saline",91 % of control
same,T/C,[4],98 % of control
same,T/C,[5],98 % of control
same,T/C,[6],96 % of control
CC(=O)N(C)C1=C(Sc2ccc(C)cc2)C(=O)c2ccccc2C1=O,T/C,"dose: 150.0 mg/kg/injection, schedule: Q01DX001 (ip), vehicle: carboxymethylcellulose (CMC)",93 % of control
C=CCC1(C(C)CCC)C(=O)NC(=S)NC1=O (stereo not drawn),T/C,"dose: 75.0 mg/kg/injection, schedule: Q01DX001 (ip), vehicle: saline",100 % of control
same,T/C,"dose: 150.0 mg/kg/injection, schedule: Q01DX001 (ip), vehicle: saline",98 % of control
same,T/C,"dose: 300.0 mg/kg/injection, schedule: Q01DX001 (ip), vehicle: saline",90 % of control
CC(=O)[O][Hg][c]1c(N)c(C)cc(C)c1F,T/C,"dose: 2.5 mg/kg/injection, schedule: Q01DX009 (ip), vehicle: saline",91 % of control
same,T/C,"dose: 5.0 mg/kg/injection, schedule: Q01DX009 (ip), vehicle: saline",95 % of control
same,T/C,"dose: 6.25 mg/kg/injection, schedule: Q04DX003 (ip), vehicle: saline",101 % of control
same,T/C,"dose: 10.0 mg/kg/injection, schedule: Q01DX009 (ip), vehicle: saline",98 % of control
same,T/C,"dose: 12.5 mg/kg/injection, schedule: Q04DX003 (ip), vehicle: saline",91 % of control
same,T/C,"dose: 25.0 mg/kg/injection, schedule: Q04DX003 (ip), vehicle: saline",94 % of control and 100 % of control
same,T/C,"dose: 100.0 mg/kg/injection, schedule: Q04DX003 (ip), vehicle: saline",95 % of control
CCOC(=O)Nc1cccc([N+](=O)[O-])c1,T/C,"dose: 100.0 mg/kg/injection, schedule: Q04DX003 (ip), vehicle: other",93 % of control
same,T/C,"dose: 200.0 mg/kg/injection, schedule: Q04DX003 (ip), vehicle: other",102 % of control
same,T/C,"dose: 400.0 mg/kg/injection, schedule: Q04DX003 (ip), vehicle: other",91 % of control
S=C(S)NCCCNC(=S)S,T/C,[4],98 % of control and 103 % of control
same,T/C,[5],95 % of control and 100 % of control
same,T/C,[6],95 % of control
CC1=CC(=N\S(=O)(=O)c2ccccc2)/C2(Cl)CC(C)=C(C)CC2/C1=N/S(=O)(=O)c1ccccc1 (stereo not drawn),T/C,"dose: 50.0 mg/kg/injection, schedule: Q01DX001 (ip), vehicle: Klucel (hydroxypropylcellulose) (HPC)",98 % of control
same,T/C,"dose: 100.0 mg/kg/injection, schedule: Q01DX001 (ip), vehicle: Klucel (hydroxypropylcellulose) (HPC)",95 % of control
same,T/C,"dose: 200.0 mg/kg/injection, schedule: Q01DX001 (ip), vehicle: Klucel (hydroxypropylcellulose) (HPC)",103 % of control
CCN(CC)CCCOP(=O)(N(CC)CC)N(CCCl)CCCl (stereo not drawn),T/C,[7],101 % of control
CC(C)(CS(C)(=O)=O)NC(=O)NCCCl,T/C,"dose: 100.0 mg/kg/injection, schedule: Q04DX002 (ip), vehicle: saline",103 % of control
same,T/C,"dose: 200.0 mg/kg/injection, schedule: Q04DX002 (ip), vehicle: saline",92 % of control
same,T/C,"dose: 400.0 mg/kg/injection, schedule: Q04DX002 (ip), vehicle: saline",103 % of control
O=C(O)CCCCCN1C(=O)c2cccc([N+](=O)[O-])c2C1=O,T/C,"dose: 100.0 mg/kg/injection, schedule: Q01DX001 (ip), vehicle: saline with Tween-80",110 % of control
same,T/C,[7],109 % of control
C/C=C\c1ccc(OC(=O)NC)c(OC)c1,T/C,[3],99 % of control
same,T/C,"dose: 100.0 mg/kg/injection, schedule: Q01DX009 (ip), vehicle: carboxymethylcellulose (CMC)",97 % of control and 104 % of control
same,T/C,"dose: 100.0 mg/kg/injection, schedule: Q04DX002 (ip), vehicle: Klucel (hydroxypropylcellulose) (HPC)",100 % of control
same,T/C,"dose: 100.0 mg/kg/injection, schedule: Q04DX002 (ip), vehicle: carboxymethylcellulose (CMC)",98 % of control and 104 % of control
same,T/C,"dose: 100.0 mg/kg/injection, schedule: Q04DX003 (ip), vehicle: carboxymethylcellulose (CMC)",96 % of control
same,T/C,"dose: 200.0 mg/kg/injection, schedule: Q01DX001 (ip), vehicle: carboxymethylcellulose (CMC)",100 % of control
same,T/C,"dose: 200.0 mg/kg/injection, schedule: Q01DX009 (ip), vehicle: carboxymethylcellulose (CMC)",103 % of control and 104 % of control
same,T/C,"dose: 200.0 mg/kg/injection, schedule: Q04DX002 (ip), vehicle: Klucel (hydroxypropylcellulose) (HPC)",103 % of control
same,T/C,"dose: 200.0 mg/kg/injection, schedule: Q04DX002 (ip), vehicle: carboxymethylcellulose (CMC)",98 % of control and 108 % of control
same,T/C,"dose: 200.0 mg/kg/injection, schedule: Q04DX003 (ip), vehicle: carboxymethylcellulose (CMC)",93 % of control
same,T/C,[1],99 % of control
same,T/C,[2],100 % of control and 101 % of control
same,T/C,"dose: 400.0 mg/kg/injection, schedule: Q04DX002 (ip), vehicle: Klucel (hydroxypropylcellulose) (HPC)",103 % of control
same,T/C,"dose: 400.0 mg/kg/injection, schedule: Q04DX002 (ip), vehicle: carboxymethylcellulose (CMC)",93 % of control and 98 % of control
same,T/C,"dose: 400.0 mg/kg/injection, schedule: Q04DX003 (ip), vehicle: carboxymethylcellulose (CMC)",93 % of control
O=C(O)c1ccccc1CN1CCCC(C(=O)O)C1 (stereo not drawn),T/C,"dose: 6.25 mg/kg/injection, schedule: Q01DX009 (ip), vehicle: saline with Tween-80",101 % of control
same,T/C,"dose: 12.5 mg/kg/injection, schedule: Q01DX009 (ip), vehicle: saline with Tween-80",97 % of control
same,T/C,"dose: 25.0 mg/kg/injection, schedule: Q01DX009 (ip), vehicle: saline with Tween-80",92 % of control
CCCCCCCC(=O)Nc1c(C)cccc1C,T/C,"dose: 100.0 mg/kg/injection, schedule: Q04DX003 (ip), vehicle: saline with Tween-80",97 % of control
same,T/C,"dose: 200.0 mg/kg/injection, schedule: Q04DX003 (ip), vehicle: saline with Tween-80",93 % of control
same,T/C,"dose: 400.0 mg/kg/injection, schedule: Q04DX003 (ip), vehicle: saline with Tween-80",93 % of control
